According to article PMC6144582, “The Binding of BF-227-Like Benzoxazoles to Human α-Synuclein and Amyloid β Peptide Fibrils” (Molecular Imaging, 2018):
pKd, pKi: −log10 of the molar value. Like-named read-outs stand apart in the source and are kept apart here.

Experiments:
human α-Syn fibrils = biological target: T1, human α-Syn fibrils (Homo sapiens, UniProt P37840); test: Competition binding against 5 nM [3H]BF-227 on α-Syn fibrils; settings: for pKi: 5 nM [3H]BF-227, Cheng-Prusoff, geometric mean (low; high errors of the geometric mean); for Ki(Aβ)/Ki(α-Syn): selectivity for α-Syn binding, ratio of Ki on Aβ fibrils to Ki on α-Syn fibrils
T1 construct: Human full-length α-Syn (NM_000345) was cloned; made in house; host or cells: Escherichia coli BL21 (D3)
Method: Human full-length α-Syn (NM_000345) was cloned into the ampicillin-resistant Escherichia coli expression vector PET7-7 and transformed into BL21 (D3) strains for expression. The recombinant α-Syn was expressed and purified to ≥95% purity as described previously.[6] The monomeric α-Syn was formulated in 10 mM Tris–HCl, pH 7.6, 50 mM NaCl at 5 mg/mL. For fibril formation, 500 µL of purified α-Syn monomer was subjected to continuous shaking at 1000 rpm in an Eppendorf Thermomixer at 37°C for 7 days. The monomer was removed from fibrils by high-speed centrifugation with a Beckman-Coulter tabletop Optima MAX-XP (Beckman-Coulter, Indianapolis, Indiana) ultra-centrifuge at 600 000g for 40 minutes, followed by 3 PBS/centrifugation wash steps. After each centrifugation step, the supernatant was removed and the concentration of α-Syn in the supernatant was calculated from absorbance at 280 nm. The pellet was resuspended in PBS, and the concentration of fibrils was estimated by subtracting the total amount of α-Syn in the supernatant from all the wash steps and confirmed by BCA assay before use.
(§1) Competition studies were carried out using 5 nM [^3H]BF-227. Experiments were performed in 50 mM Tris–HCl pH 7.5, 150 mM NaCl, and 0.1% bovine serum albumin in a reaction volume of 200 µL. Incubations were initiated with the addition of human α-Syn ([…]) or Aβ1-42 (0.1 μM/well) fibrils at room temperature and terminated 2 hours later by rapid vacuum filtration over Whatman GF/C 96-well Unifilters (Brandel [Gaithersburg, Maryland]) presoaked in cold wash buffer (50 mM Tris–HCl, pH7.4), followed by four 200 µL washes with cold wash buffer. Filters containing bound ligand were mixed with 50 µL Microscint-PS (Perkin-Elmer [Waltham, Massachusetts]) and counted with a MicroBeta2 Scintillation Counter (Perkin Elmer). All data points were performed in triplicate. Values for the saturation binding dissociation constant (KD) and the maximal number of binding sites (Bmax) were determined by fitting the data to the equation Y = Bmax × X/(X + KD) using nonlinear regression analysis. IC50 values were generated from the concentration–response curves using nonlinear regression analysis and converted to Ki values with the Cheng-Prusoff equation.[7] Data analysis was performed with GraphPad Prism version 7.02.
(§2) Results are expressed as inhibition constants (Ki, nM) corrected for ligand occupancy.[7] Each value is a geometric mean from the indicated numbers of experiments (n), with the numbers in parentheses indicating the low and high errors of the geometric mean. Also shown are the Log P, tPSA, and CLogP values for these compounds. These can be compared with means for the 5 Aβ imaging agents which can serve as an empirical training set to judge the likely in vivo behavior of new compounds.

Aβ1-42 fibrils = biological target: T2, Aβ1-42 fibrils (Homo sapiens, UniProt P05067); test: Competition binding against 5 nM [3H]BF-227 on Aβ1-42 fibrils; settings: 5 nM [3H]BF-227, Cheng-Prusoff; geometric mean (low; high errors of the geometric mean); read-out: Aβ Ki
T2 construct: Aβ1-42 peptide 5 mg, Cat #20276-5 (Anaspec, Fremont, California); purchased Anaspec 20276-5
Method: The clear peptide solution was transferred to a 15 mL conical tube. […] Subsequently, 4 mL of Milli-Q-H2O was added to the conical tube followed by the addition of 125 µL of 1 M Tris–HCl, pH 7.5 with gentle mixing of the solution. The final volume was 5 mL, with the starting peptide concentration at 1 mg/mL. The peptide solution was divided into 5 × 1 mL aliquots with 1.5 mL Eppendorf tubes and incubated for 72 hours at 37°C with shaking at 1000 rpm in an Eppendorf Thermomixer. […] Fibril stock solutions were stored at −80°C.
as §1, with “Experiments” for “Competition studies were carried out using 5 nM [^3H]BF-227. Experiments”, “equation.[7]” for “equation.[7] Data analysis was performed with GraphPad Prism version 7.02.”
as §2, with “Also shown are the Log P, tPSA, and CLogP values for these compounds.” left out

synthetic α-Syn fibrils = biological target: synthetic α-Syn fibrils; design: method as in PMID 19576880; settings: reported value; cited from earlier work
Lewy body = test system: Lewy body; design: method as in PMID 19576880; settings: high concentration (100 μM); cited from earlier work
synthetic Aβ fibrils [1] = biological target: synthetic Aβ fibrils; design: method as in PMID 19576880; settings: reported value; cited from earlier work
synthetic Aβ fibrils [2] = biological target: synthetic Aβ fibrils; design: method as in PMID 17401091; settings: reported value; cited from earlier work
[3] = test system: α-Syn-positive, Aβ-negative dementia with Lewy body human brain homgenates; design: method as in PMID 28826526; settings: cited from earlier work

T2 sequence (P05067 672-713 limits assumed): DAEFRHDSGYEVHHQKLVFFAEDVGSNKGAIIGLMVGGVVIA

| SMILES | pKi (human α-Syn fibrils) | pKi (Aβ1-42 fibrils) | Ki(Aβ)/Ki(α-Syn) (human α-Syn fibrils) | further results |
| --- | --- | --- | --- | --- |
| COc1cc(/C=C/c2ccc(N)cc2)ccc1/C=C/c1ccc(N)cc1 [BMB, 1,4-bis(paminostyryl)-2-methoxy benzene, reference compound] | 6.74 | 7.12 | – | – |
| CNc1ccc(-c2nc3ccccc3s2)cc1 [BTA-1, reference compound] | 7.19 | – | – | – |
| C#CCN(C)CCCOc1ccc(Cl)cc1Cl [Clorgyline, reference compound] | < 5.05 | < 5.30 | – | – |
| CN(C)c1ncc(C=Cc2nc3ccc(OCCF)cc3o2)s1 [Compound 1, 2-(2-[2-dimethylaminothiazol-5-yl]ethenyl)-6-(2-[fluoro]ethoxy)benzoxazole] | 7.28 | 7.92 | 0.23 | pKd (synthetic α-Syn fibrils): 8.03; Lewy body fluorescence in histochemical analysis (Lewy body): led to Lewy body fluorescence; pKd (synthetic Aβ fibrils [1]): 8.88; pKd (synthetic Aβ fibrils [2]): 8.39 |
| CN(C)c1ncc(/C=C/c2nc3ccc(OCCCF)cc3o2)s1 [Compound 2] | 6.80 | 8.05 | 0.06 | – |
| CN(C)c1ncc(/C=C/c2nc3ccc(OCCCCF)cc3o2)s1 [Compound 3] | 6.42 | 7.51 | 0.08 | – |
| CN(C)c1ncc(/C=C/c2nc3ccc(OCCCCCF)cc3o2)s1 [Compound 4] | 6.53 | 7.55 | 0.09 | – |
| CN(C)c1ncc(/C=C/c2nc3ccc(OCCCCCCF)cc3o2)s1 [Compound 5] | 6.34 | 7.64 | 0.05 | – |
| CN(C)c1ncc(/C=C/c2nc3ccc(OCCCCCCCF)cc3o2)s1 [Compound 6] | 6.67 | 7.57 | 0.13 | – |
| CN(C)c1ncc(/C=C/c2nc3ccc(OCCOCCF)cc3o2)s1 [Compound 7] | 7.08 | 7.96 | 0.13 | – |
| CN(C)c1ncc(/C=C/c2nc3ccc(OCCOCCOCCF)cc3o2)s1 [Compound 8] | 7.28 | 7.89 | 0.25 | – |
| CN(C)c1ncc(/C=C/c2nc3ccc(OCCOCCOCCOCCF)cc3o2)s1 [Compound 9] | 7.00 | 7.59 | 0.26 | – |
| CN(C)c1ncc(/C=C/c2nc3ccc(OCCOCCOCCOCCOCCF)cc3o2)s1 [Compound 10] | 7.12 | 7.74 | 0.24 | – |
| CN(C)c1ncc(/C=C/c2nc3ccc(I)cc3o2)s1 [Compound 11] | – | 6.65 | 0.30 | – |
| CN(C)c1ncc(/C=C/c2nc3cc(I)ccc3o2)s1 [Compound 12] | 6.56 | 7.02 | 0.35 | – |
| Fc1ccc2nc(/C=C/c3ccccc3)oc2c1 [Compound 13] | 6.48 | 5.90 | 3.8 | – |
| Fc1ccc2oc(/C=C/c3ccccc3)nc2c1 [Compound 14] | 6.62 | 6.28 | 2.2 | – |
| Fc1ccc2nc(/C=C/c3cncs3)oc2c1 [Compound 15] | 6.54 | 5.84 | 5.1 | – |
| CNc1ccc(/C=C/c2ccc(OCCOCCOCCF)nc2)cc1 [Florbetapir (AV-45), reference compound] | 7.62 | 7.92 | 0.46 | – |
| CNc1ccc(-c2cc3cc(O)ccc3o2)c(F)n1 [Flutafuranol (NAV 4694), reference compound] | 7.49 | 7.38 | 1.34 | – |
| CNc1ccc(-c2nc3ccc(O)cc3s2)cc1F [Flutemetamol, reference compound] | 7.32 | 7.19 | 1.35 | – |
| CNc1ccc(-c2nc3ccc(O)cc3s2)cc1 [PiB, reference compound] | 7.26 | – | – | – |
| NCCNC(=O)c1ccc(Cl)cc1 [RO-16-6491, reference compound] | < 5.05 | < 5.15 | – | – |
| CN(C)c1ncc(C=Cc2nc3ccc(OCCF)cc3o2)s1 [[^18F]BF-227] | – | – | – | Binding to α-Syn-positive, Aβ-negative dementia with Lewy body human brain homogenates [3]: failed to bind |
| Cc1ccc2c(sc(-c3ccc4c(c3)sc(-c3ccc(N(C)C)cc3)[n+]4C)[n+]2C)c1S(=O)(=O)O [reference compound] | < 5.05 | 5.67 | ≤0.2 | – |
